Laboratory results as given in ChEMBL document CHEMBL5576101, “Discovery of 1,2,3-triazole-based pleuromutilin derivatives as potent gram-positive antibacterial agents” (2024).
Values after ≈ are worked out from the molar mass of the structure shown. Active and inactive are the calls of the source. The rule behind the calls is not given here.

Columns and labels:
[1] = system: Staphylococcus epidermidis; assay: Antibacterial activity against Staphylococcus epidermidis by broth dilution method; type: functional
Escherichia coli = assay: Antibacterial activity against Escherichia coli by broth dilution method; type: functional
Staphylococcus aureus [2] = assay: Antibacterial activity against Staphylococcus aureus by broth dilution method; type: functional
Staphylococcus aureus [3] = assay: Antibacterial activity against methicillin-resistant Staphylococcus aureus by broth dilution method; type: functional
Enterococcus faecalis [4] = assay: Antibacterial activity against Enterococcus faecalis by broth dilution method; type: functional
Staphylococcus aureus [5] = assay: Bacteriostatic activity against methicillin-resistant Staphylococcus aureus assessed as log reduction in viable cell count at 6 times MIC measured after 24 hrs by time kill assay; type: functional
Staphylococcus aureus [6] = assay: Bacteriostatic activity against Staphylococcus aureus assessed as reduction in bacterial growth at 1 times MIC measured after 24 hrs by time kill assay; type: functional, organism-based
Staphylococcus aureus [7] = assay: Bacteriostatic activity against Staphylococcus aureus assessed as log reduction in viable cell count at 6 times MIC measured after 24 hrs by time kill assay; type: functional
Staphylococcus aureus [8] = assay: Bacteriostatic activity against methicillin-resistant Staphylococcus aureus assessed as reduction in bacterial growth at 1 times MIC measured after 24 hrs by time kill assay; type: functional, organism-based
[9] = system: Staphylococcus epidermidis; assay: Bacteriostatic activity against Staphylococcus epidermidis assessed as reduction in bacterial growth at 1 times MIC measured after 24 hrs by time kill assay; type: functional, organism-based
Staphylococcus aureus [10] = assay: Potency index, ratio of tiamulin MIC to test compound MIC for antibacterial activity methicillin-resistant Staphylococcus aureus by broth dilution method; type: functional
Staphylococcus aureus [11] = assay: Potency index, ratio of tiamulin MIC to test compound MIC for antibacterial activity Staphylococcus aureus by broth dilution method; type: functional
Staphylococcus aureus [12] = assay: Bacteriostatic activity against Staphylococcus aureus assessed as log reduction in bacterial growth at 4 times MIC measured after 24 hrs by time kill assay; type: functional
Enterococcus faecalis [13] = assay: Potency index, ratio of tiamulin MIC to test compound MIC for antibacterial activity Enterococcus faecalis by broth dilution method; type: functional
Staphylococcus aureus [14] = assay: Bacteriostatic activity against Staphylococcus aureus assessed as log reduction in bacterial growth at 2 times MIC measured after 24 hrs by time kill assay; type: functional
[15] = system: Staphylococcus epidermidis; assay: Potency index, ratio of tiamulin MIC to test compound MIC for antibacterial activity Staphylococcus epidermidis by broth dilution method; type: functional
[16] = system: Staphylococcus epidermidis; assay: Bacteriostatic activity against Staphylococcus epidermidis assessed as log reduction in bacterial growth at 6 times MIC measured after 24 hrs by time kill assay; type: functional

| SMILES | MIC [1] [µg/mL] | MIC (Escherichia coli) [µg/mL] | MIC (Staphylococcus aureus [2]) [µg/mL] | MIC (Staphylococcus aureus [3]) [µg/mL] | MIC (Enterococcus faecalis [4]) [µg/mL] | log(activity) (Staphylococcus aureus [5]) | Activity (Staphylococcus aureus [6]) | log(activity) (Staphylococcus aureus [7]) | Activity (Staphylococcus aureus [8]) | Activity [9] | Ratio (Staphylococcus aureus [10]) | Ratio (Staphylococcus aureus [11]) | log(activity) (Staphylococcus aureus [12]) | Ratio (Enterococcus faecalis [13]) | log(activity) (Staphylococcus aureus [14]) | Ratio [15] | log(activity) [16] |
| --- | --- | --- | --- | --- | --- | --- | --- | --- | --- | --- | --- | --- | --- | --- | --- | --- | --- |
| C=C[C@]1(C)C[C@@H](OC(=O)CSC(C)(C)CNC(=O)Cn2cc(Cc3ccc(OC)cc3)nn2)[C@]2(C)[C@H](C)CC[C@]3(CCC(=O)[C@H]32)[C@@H](C)[C@@H]1O | 0.5 (≈ 0.719 µM) | > 64 | 0.5 (≈ 0.719 µM) | > 64 | 1 (≈ 1.44 µM) | – | – | – | – | – | – | – | – | – | – | – | – |
| C=C[C@]1(C)C[C@@H](OC(=O)CSC(C)(C)CNC(=O)Cn2cc(Cc3ccccc3)nn2)[C@]2(C)[C@H](C)CC[C@]3(CCC(=O)[C@H]32)[C@@H](C)[C@@H]1O | 4 (≈ 6.02 µM) | > 64 | 16 (≈ 24.1 µM) | 4 (≈ 6.02 µM) | 64 (≈ 96.3 µM) | – | – | – | – | – | – | – | – | – | – | – | – |
| C=C[C@]1(C)C[C@@H](OC(=O)CSC(C)(C)CNC(=O)Cn2cc(CNc3ccc(Br)cc3)nn2)[C@]2(C)[C@H](C)CC[C@]3(CCC(=O)[C@H]32)[C@@H](C)[C@@H]1O | 16 (≈ 21.1 µM) | > 64 | > 64 | 64 (≈ 84.3 µM) | > 64 | – | – | – | – | – | – | – | – | – | – | – | – |
| C=C[C@]1(C)C[C@@H](OC(=O)CSC(C)(C)CNC(=O)Cn2cc(COc3ccc(C)cc3)nn2)[C@]2(C)[C@H](C)CC[C@]3(CCC(=O)[C@H]32)[C@@H](C)[C@@H]1O | 0.062 (≈ 0.0892 µM) | > 64 | > 64 | 0.062 (≈ 0.0892 µM) | 16 (≈ 23 µM) | – | – | – | – | – | – | – | – | – | – | – | – |
| C=C[C@]1(C)C[C@@H](OC(=O)CSC(C)(C)CNC(=O)Cn2cc(COc3ccccc3)nn2)[C@]2(C)[C@H](C)CC[C@]3(CCC(=O)[C@H]32)[C@@H](C)[C@@H]1O | 8 (≈ 11.7 µM) | > 64 | 64 (≈ 94 µM) | 8 (≈ 11.7 µM) | 16 (≈ 23.5 µM) | – | – | – | – | – | – | – | – | – | – | – | – |
| C=C[C@]1(C)C[C@@H](OC(=O)CSC(C)(C)CNC(=O)Cn2cc(CNc3ccc(Cl)cc3)nn2)[C@]2(C)[C@H](C)CC[C@]3(CCC(=O)[C@H]32)[C@@H](C)[C@@H]1O | 8 (≈ 11.2 µM) | > 64 | 2 (≈ 2.8 µM) | 8 (≈ 11.2 µM) | 64 (≈ 89.6 µM) | – | – | – | – | – | – | – | – | – | – | – | – |
| C=C[C@]1(C)C[C@@H](OC(=O)CSC(C)(C)CNC(=O)Cn2cc(CNc3ccc(CCC)cc3)nn2)[C@]2(C)[C@H](C)CC[C@]3(CCC(=O)[C@H]32)[C@@H](C)[C@@H]1O | 16 (≈ 22.2 µM) | > 64 | 32 (≈ 44.3 µM) | 4 (≈ 5.54 µM) | > 64 | – | – | – | – | – | – | – | – | – | – | – | – |
| C=C[C@]1(C)C[C@@H](OC(=O)CSC(C)(C)CNC(=O)Cn2cc(Cc3cccc(N)c3)nn2)[C@]2(C)[C@H](C)CC[C@]3(CCC(=O)[C@H]32)[C@@H](C)[C@@H]1O | 0.062 (≈ 0.0912 µM) | > 64 | > 64 | 0.062 (≈ 0.0912 µM) | > 64 | 4.3 | Active | 4.1 | Active | Active | – | – | – | – | – | – | – |
| C=C[C@]1(C)C[C@@H](OC(=O)CSCCN(CC)CC)[C@]2(C)[C@H](C)CC[C@]3(CCC(=O)[C@H]32)[C@@H](C)[C@@H]1O [TIAMULIN] | 0.5 (≈ 1.01 µM) | > 64 | 4 (≈ 8.1 µM) | 0.25 (≈ 0.506 µM) | 32 (≈ 64.8 µM) | – | – | – | – | – | – | – | – | – | – | – | – |
| C=C[C@]1(C)C[C@@H](OC(=O)CSC(C)(C)CNC(=O)Cn2cc(CNc3ccc(C)cc3)nn2)[C@]2(C)[C@H](C)CC[C@]3(CCC(=O)[C@H]32)[C@@H](C)[C@@H]1O | 2 (≈ 2.88 µM) | > 64 | 16 (≈ 23.1 µM) | 16 (≈ 23.1 µM) | 64 (≈ 92.2 µM) | – | – | – | – | – | – | – | – | – | – | – | – |
| C=C[C@]1(C)C[C@@H](OC(=O)CSC(C)(C)CNC(=O)Cn2cc(CNc3ccc(OC)cc3)nn2)[C@]2(C)[C@H](C)CC[C@]3(CCC(=O)[C@H]32)[C@@H](C)[C@@H]1O | 2 (≈ 2.82 µM) | > 64 | 4 (≈ 5.63 µM) | 4 (≈ 5.63 µM) | 64 (≈ 90.1 µM) | – | – | – | – | – | – | – | – | – | – | – | – |
| C=C[C@]1(C)C[C@@H](OC(=O)CSC(C)(C)CNC(=O)Cn2cc(CC3CC3)nn2)[C@]2(C)[C@H](C)CC[C@]3(CCC(=O)[C@H]32)[C@@H](C)[C@@H]1O | 0.5 (≈ 0.795 µM) | > 64 | 4 (≈ 6.36 µM) | 8 (≈ 12.7 µM) | 64 (≈ 102 µM) | – | – | – | – | – | – | – | – | – | – | – | – |
| C=C[C@]1(C)C[C@@H](OC(=O)CSC(C)(C)CNC(=O)Cn2cc(COc3ccc([N+](=O)[O-])cc3[N+](=O)[O-])nn2)[C@]2(C)[C@H](C)CC[C@]3(CCC(=O)[C@H]32)[C@@H](C)[C@@H]1O | 0.062 (≈ 0.0804 µM) | > 64 | 0.062 (≈ 0.0804 µM) | 0.062 (≈ 0.0804 µM) | 0.25 (≈ 0.324 µM) | 4.3 | Active | 4.1 | Active | Active | 4 | 64 | 3.38 | 128 | 1.98 | 8 | – |
| C=C[C@]1(C)C[C@@H](OC(=O)CSC(C)(C)CNC(=O)Cn2cc(CNc3ccc([N+](=O)[O-])cc3)nn2)[C@]2(C)[C@H](C)CC[C@]3(CCC(=O)[C@H]32)[C@@H](C)[C@@H]1O | 0.125 (≈ 0.172 µM) | > 64 | 64 (≈ 88.3 µM) | 0.25 (≈ 0.345 µM) | 2 (≈ 2.76 µM) | – | Active | – | Active | Active | – | – | – | – | – | – | 4.4 |
| C=C[C@]1(C)C[C@@H](OC(=O)CSC(C)(C)CNC(=O)Cn2cc(COc3ccc([N+](=O)[O-])cc3)nn2)[C@]2(C)[C@H](C)CC[C@]3(CCC(=O)[C@H]32)[C@@H](C)[C@@H]1O | 1 (≈ 1.38 µM) | > 64 | 4 (≈ 5.51 µM) | 4 (≈ 5.51 µM) | 64 (≈ 88.2 µM) | – | – | – | – | – | – | – | – | – | – | – | – |
| C=C[C@]1(C)C[C@@H](OC(=O)CSC(C)(C)CNC(=O)Cn2cc(CNc3ccc(CCCCCC)cc3)nn2)[C@]2(C)[C@H](C)CC[C@]3(CCC(=O)[C@H]32)[C@@H](C)[C@@H]1O | 2 (≈ 2.62 µM) | > 64 | 32 (≈ 41.9 µM) | 8 (≈ 10.5 µM) | > 64 | – | – | – | – | – | – | – | – | – | – | – | – |
| C=C[C@]1(C)C[C@@H](OC(=O)CSC(C)(C)CNC(=O)Cn2cc(CNc3ccc(OCCCCCC)cc3)nn2)[C@]2(C)[C@H](C)CC[C@]3(CCC(=O)[C@H]32)[C@@H](C)[C@@H]1O | 0.5 (≈ 0.641 µM) | > 64 | > 64 | 16 (≈ 20.5 µM) | 0.062 (≈ 0.0795 µM) | – | – | – | – | – | – | – | – | – | – | – | – |
| C=C[C@]1(C)C[C@@H](OC(=O)CSC(C)(C)CNC(=O)Cn2cc(Cc3cccnc3)nn2)[C@]2(C)[C@H](C)CC[C@]3(CCC(=O)[C@H]32)[C@@H](C)[C@@H]1O | 0.25 (≈ 0.375 µM) | > 64 | 16 (≈ 24 µM) | 2 (≈ 3 µM) | 0.062 (≈ 0.0931 µM) | – | – | – | – | – | – | – | – | – | – | – | – |
